{"source": "paper PMC10733197", "about": "“Utilization of Rosuvastatin and Endogenous Biomarkers in Evaluating the Impact of Ritlecitinib on BCRP, OATP1B1, and OAT3 Transporter Activity” (Pharmaceutical Research, 2023)", "key": {"OCT1": {"tested_on": "OCT1", "set-up": "method as in PMID 36807251", "conditions": "cited from earlier work"}, "OAT1/3 [1]": {"tested_on": "OAT1/3", "test": "Plasma PDA as endogenous biomarker of OAT1/3 in clinical DDI studies", "format": "in vivo, human", "conditions": "for AUC24 / Cmax: geometric mean (%CV)", "protocol": "Blood and urine samples were collected at prespecified timepoints. Rosuvastatin plasma samples (~ 6 mL) were collected predose and at 0.5, 1, 2, 3, 4, 5, 6, 8, 10, 12, 16, 24, 36, 48, and 72 h postdose. CP-I and PDA plasma samples (~ 6 mL) were collected predose and at 0.5, 1, 2, 3, 4, 5, 6, 8, 10, 12, 16, and 24 h post rosuvastatin dosing. Rosuvastatin urine samples were collected at predose, 0–6 h, 6–12, 12–24, 24–48, and 48–72 h postdose. Each participant emptied their bladder just prior to dosing.\nQuantification of PDA was conducted by mass spectrometry according to Towner et al.. […] Mass spectrometry detection of the analytes were achieved using a SCIEX API QTrap 5500 mass spectrometry and a Turbo V electrospray ionization source in negative ion mode. Plasma samples were prepared by protein precipitation by spiking 50 μL of sample with 200 μL of 300 ng/mL 4-aminosalicylic acid internal standard. After vortexing/centrifugation, 200 μL of supernatant was transferred and 1 μL injections were analyzed. A 1/x^2 weighted linear regression was used to quantitate sample concentrations.\nThe PK parameters for rosuvastatin, CP-I and PDA were calculated for each participant and each treatment using Pfizer’s internally validated electronic noncompartmental analysis software (eNCA) version 2.4.4. Samples below the lower limit of quantitation were set to zero for the PK analysis. Actual sample collection times were used for the PK analysis.\nNatural log transformed area under the plasma concentration-time profile from time 0 extrapolated to infinity (AUCinf), maximum plasma concentration (Cmax), and apparent renal clearance (CLr) were analyzed using a mixed effect model with treatment as a fixed effect and participant as a random effect (SAS version 9.4; SAS Institute, Cary, NC, USA). Estimates of the adjusted mean differences (Test-Reference) and corresponding 90% CIs were obtained from the model. The adjusted mean difference and 90% CIs for the differences were exponentiated to provide estimates of the ratio of adjusted geometric means (Test/Reference) and 90% CIs for the ratios. Rosuvastatin alone was the reference treatment, while the rosuvastatin coadministered with ritlecitinib was the Test treatment."}, "OAT1/3 [2]": {"tested_on": "OAT1/3", "conditions": "cited from earlier work; for PDA AUC ratio Observed: ref 1 (Rodrigues AD 2023)"}, "OAT3": {"molecular_target": "T1, OAT3 (Homo sapiens, UniProt Q8TCC7)", "T1 construct": "expressed in transfected cells; host or cells: HEK293", "T1 sequence (Q8TCC7 1-542)": "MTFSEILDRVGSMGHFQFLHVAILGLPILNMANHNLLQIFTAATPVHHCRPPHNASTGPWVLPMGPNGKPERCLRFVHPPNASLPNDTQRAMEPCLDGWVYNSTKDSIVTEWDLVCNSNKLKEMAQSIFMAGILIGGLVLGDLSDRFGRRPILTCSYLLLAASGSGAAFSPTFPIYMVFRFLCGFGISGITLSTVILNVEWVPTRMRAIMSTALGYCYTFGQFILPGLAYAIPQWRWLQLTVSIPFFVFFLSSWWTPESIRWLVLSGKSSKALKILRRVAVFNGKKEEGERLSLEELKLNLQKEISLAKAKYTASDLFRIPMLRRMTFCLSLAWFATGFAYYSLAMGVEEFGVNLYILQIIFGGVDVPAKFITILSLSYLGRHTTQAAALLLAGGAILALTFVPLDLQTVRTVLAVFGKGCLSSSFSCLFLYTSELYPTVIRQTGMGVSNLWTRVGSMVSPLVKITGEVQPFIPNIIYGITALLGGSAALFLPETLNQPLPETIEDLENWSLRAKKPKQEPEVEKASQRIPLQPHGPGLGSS", "conditions": "estrone 3-sulfate 0.1 µM; HEK293; existing in vitro data; cited from earlier work"}, "[3]": {"conditions": "cited from earlier work"}, "OAT1": {"molecular_target": "T2, OAT1 (Homo sapiens, UniProt Q4U2R8)", "T2 sequence (Q4U2R8 1-563)": "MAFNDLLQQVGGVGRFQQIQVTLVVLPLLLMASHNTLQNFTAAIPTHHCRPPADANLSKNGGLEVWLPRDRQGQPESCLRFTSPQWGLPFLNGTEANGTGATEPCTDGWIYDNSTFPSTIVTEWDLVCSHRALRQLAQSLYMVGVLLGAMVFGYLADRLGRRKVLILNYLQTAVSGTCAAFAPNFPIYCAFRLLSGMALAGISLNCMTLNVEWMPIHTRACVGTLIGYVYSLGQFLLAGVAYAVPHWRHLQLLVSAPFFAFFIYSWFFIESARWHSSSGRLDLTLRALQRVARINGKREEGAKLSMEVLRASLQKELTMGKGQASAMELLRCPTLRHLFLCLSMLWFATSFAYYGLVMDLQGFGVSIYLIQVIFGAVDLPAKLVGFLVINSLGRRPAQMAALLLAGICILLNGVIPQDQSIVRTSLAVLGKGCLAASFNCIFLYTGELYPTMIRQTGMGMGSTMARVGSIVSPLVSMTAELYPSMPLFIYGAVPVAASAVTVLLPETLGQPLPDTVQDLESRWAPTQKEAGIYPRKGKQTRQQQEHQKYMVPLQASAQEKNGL", "conditions": "cited from earlier work"}, "clinical": {"test": "clinical", "conditions": "human, in vivo, 10 mg", "protocol": "Blood and urine samples were collected at prespecified timepoints. […] Each participant emptied their bladder just prior to dosing. Plasma rosuvastatin was measured using a validated UPLC-MS/MS assay, in compliance with Pfizer standard operating procedures. Samples were thawed at room temperature and vortexed. […] Samples were then placed in a methanol/ dry ice bath for 5 min. […] Dry residues were reconstituted with 200 μL of reconstitution solution (mobile phase A). After vortexing, all tubes were centrifuged at 3000 rpm for 5 min at 4 °C, and 150 μL of the reconstituted samples were transferred into the deep round well microplates and sealed by aluminum foil at 165 °C. […] Mobile phase A was Milli-Q Type Water/methanol, ammonium acetate 2 mM and mobile phase B was acetonitrile. The monitored ion transitions were m/z 483.3 → 258.2; […] The validated rosuvastatin concentration calibration range was 20 to 25000 pg/mL. Urine rosuvastatin was measured using a validated HPLC-MS/MS assay, in compliance with Pfizer standard operating procedures. […] Mobile phase A was Milli-Q® type water/methanol, ammonium acetate 2 mM and mobile phase B was acetonitrile. The monitored ion transitions were m/z 483.3 → 258.2; […] The validated rosuvastatin concentration calibration range was 5 to 2000 ng/mL. […] Samples below the lower limit of quantitation were set to zero for the PK analysis. Actual sample collection times were used for the PK analysis. Natural log transformed area under the plasma concentration-time profile from time 0 extrapolated to infinity (AUCinf), maximum plasma concentration (Cmax), and apparent renal clearance (CLr) were analyzed using a mixed effect model with treatment as a fixed effect and participant as a random effect (SAS version 9.4; SAS Institute, Cary, NC, USA). […] Rosuvastatin alone was the reference treatment, while the rosuvastatin coadministered with ritlecitinib was the Test treatment."}, "OATP2B1": {"tested_on": "OATP2B1", "set-up": "method as in PMID 27737931", "conditions": "rosuvastatin coadministered with ronacaleret, an OATP2B1 inhibitor; cited from earlier work"}, "[4]": {"set-up": "method as in PMID 14693307", "conditions": "cited from earlier work"}, "[5]": {"test": "Safety and tolerability in the clinical DDI study", "quoted_text": "This was a Phase 1, 2-period fixed-sequence, multiple-dose, open-label study of the effect of ritlecitinib on the pharmacokinetics and renal clearance of a single, oral dose of rosuvastatin in healthy participants (Fig. 1). The safety and tolerability of rosuvastatin when coadministered with ritlecitinib was also evaluated.\nIn Period 1 on Day 1, following an overnight fast of at least 10 h, participants received a single oral administration of rosuvastatin 10 mg tablet. Period 1 was immediately followed by Period 2 with no washout. In Period 2 (coadministration), participants received oral ritlecitinib 200 mg once daily (QD) under non-fasting conditions for 7 days. On the morning of Day 8, a single dose of rosuvastatin 10 mg tablet was administered orally within approximately 5 min after administration of a ritlecitinib 200 mg dose under fasting conditions. On Days 9 and 10, participants continued to receive oral ritlecitinib 200 mg QD under non-fasting conditions."}, "[6]": {"conditions": "rosuvastatin 10 mg + ritlecitinib 200 mg QD"}, "[7]": {"conditions": "with vs without ritlecitinib 200 mg QD"}, "[8]": {"conditions": "rosuvastatin 10 mg single dose (without ritlecitinib) or ritlecitinib 200 mg QD, 12 healthy participants"}}, "note": "Read-outs that look alike come from different tables or passages of the source.", "data": [{"smiles": "CNS(=O)(=O)Cc1ccc2[nH]cc(CCN(C)C)c2c1", "note": "[sumatriptan]", "values": [{"measurement": "increase in AUCinf", "setting": "OCT1; sumatriptan with ritlecitinib coadministration, due to OCT1 inhibition", "value": 30, "unit": "%"}, {"measurement": "decrease in Cmax", "setting": "OCT1; sumatriptan with ritlecitinib coadministration", "value": 13, "unit": "%"}, {"measurement": "exposure increase", "setting": "OCT1; sumatriptan, liver OCT1 inhibition by ritlecitinib and M2", "value": "up to 50%"}]}, {"smiles": "Cc1ncc(CO)c(C(=O)O)c1O", "note": "[PDA, pyridoxic acid]", "values": [{"measurement": "AUC24", "setting": "OAT1/3 [1]; [6]", "value": "69.47 (33)"}, {"measurement": "Cmax", "setting": "OAT1/3 [1]; [6]", "value": "3.765 (28)"}, {"measurement": "AUC24", "setting": "OAT1/3 [1]; rosuvastatin 10 mg alone", "value": "67.34 (30)"}, {"measurement": "Cmax", "setting": "OAT1/3 [1]; rosuvastatin 10 mg alone", "value": "3.664 (29)"}, {"measurement": "AUC24 % Ratio (Test/Reference) of Adjusted Geometric Means (90% CI)", "setting": "OAT1/3 [1]; [7]", "value": "103.16 (87.65, 121.42) %"}, {"measurement": "Cmax % Ratio (Test/Reference) of Adjusted Geometric Means (90% CI)", "setting": "OAT1/3 [1]; [7]", "value": "102.76 (87.58, 120.58) %"}, {"measurement": "increase in plasma AUC", "setting": "OAT1/3 [2]; plasma PDA in the presence of probenecid", "value": 3.1, "unit": "fold"}]}, {"smiles": "CCc1nc(N)nc(N)c1-c1ccc(Cl)cc1", "note": "[Pyrimethamine]", "values": [{"measurement": "IC50", "setting": "OAT3", "value": 16, "unit": "µM"}, {"measurement": "Cmax,u", "setting": "[3]; inhibitor dose 10 mg", "value": 40, "unit": "nM"}, {"measurement": "Cmax,u", "setting": "[3]; inhibitor dose 25 mg", "value": 110, "unit": "nM"}, {"measurement": "Cmax,u", "setting": "[3]; inhibitor dose 75 mg", "value": 370, "unit": "nM"}, {"measurement": "PDA AUC ratio Observed", "setting": "OAT1/3 [2]; inhibitor dose 10 mg", "value": 0.7}, {"measurement": "PDA AUC ratio Observed", "setting": "OAT1/3 [2]; inhibitor dose 25 mg", "value": 0.6}, {"measurement": "PDA AUC ratio Observed", "setting": "OAT1/3 [2]; inhibitor dose 75 mg", "value": 0.6}, {"measurement": "IC50", "setting": "OAT1", "value": 224, "unit": "µM"}]}, {"smiles": "CC(C)c1nc(N(C)S(C)(=O)=O)nc(-c2ccc(F)cc2)c1/C=C/[C@@H](O)C[C@@H](O)CC(=O)O", "note": "[Rosuvastatin, rosuvastatin]", "values": [{"measurement": "AUC(0-inf)", "setting": "clinical", "value": 43.9, "unit": "ng·h/mL"}, {"measurement": "CL renal", "setting": "clinical", "value": 218, "unit": "mL/min"}, {"measurement": "CL/F", "setting": "clinical", "value": "228.0 (44) L/hr"}, {"measurement": "Cmax", "setting": "clinical", "value": 4.5, "unit": "ng/mL"}, {"measurement": "Tmax", "setting": "clinical", "value": 4.01, "unit": "h"}, {"measurement": "Vd/F", "setting": "clinical", "value": 6020, "unit": "L"}, {"measurement": "half-life", "setting": "clinical", "value": "19.2 ± 7.02", "unit": "h"}, {"measurement": "decrease in AUCinf exposure", "setting": "OATP2B1", "value": "~50", "unit": "%"}, {"measurement": "excreted in urine", "setting": "[4]", "value": "≤ 10", "unit": "%"}, {"measurement": "TEAEs of moderate severity", "setting": "[5]; back pain, single dose of rosuvastatin 10 mg", "value": 1}, {"measurement": "number of treatment-emergent adverse events (TEAEs)", "setting": "[5]; [8]", "value": 4}, {"measurement": "participants with TEAEs", "setting": "[5]; [8]", "value": 4}, {"measurement": "TEAEs considered treatment-related by the investigator", "setting": "[5]; rosuvastatin 10 mg single dose or ritlecitinib 200 mg QD", "value": "all of which were considered treatment-related"}]}]}
